Laboratory results published in US9718832B2, “Hexahydrofuropyrroles as PDE1 inhibitors” (H. Lundbeck A/S, priority 2014, dated 2017).

How the values were obtained:
Assay type in all cases: biochemical
Conditions in all cases: 15 nM tritium labelled cAMP, 1 h at room temperature, SPA beads
PDE1C = PDE1C (Homo sapiens, UniProt Q14123); experiment: PDE1 inhibition assay (PDE1C)
Procedure: (§1) PDE1A, PDE1B and PDE1C assays were performed as follows: the assays was performed in 60 μL samples containing a fixed amount of the PDE1 enzym1 (sufficient to convert 20-25% of the cyclic nucleotide substrate), a buffer (50 mM HEPES pH 7.6; 10 mM MgCl2; 0.02% Tween20), 0.1 mg/ml BSA, 15 nM tritium labelled cAMP and varying amounts of inhibitors. Reactions were initiated by addition of the cyclic nucleotide substrate, and reactions were allowed to proceed for 1 h at room temperature before being terminated through mixing with 20 μL (0.2 mg) yttrium silicate SPA beads (PerkinElmer). The beads were allowed to settle for 1 h in the dark before the plates were counted in a Wallac 1450 Microbeta counter. The measured signals were converted to activity relative to an uninhibited control (100%) and IC50 values were calculated using XIFit (model 205, IDBS).

PDE1B = PDE1B (Homo sapiens, UniProt Q01064); experiment: PDE1 inhibition assay (PDE1B)
PDE1B, sequence (Q01064 whole entry): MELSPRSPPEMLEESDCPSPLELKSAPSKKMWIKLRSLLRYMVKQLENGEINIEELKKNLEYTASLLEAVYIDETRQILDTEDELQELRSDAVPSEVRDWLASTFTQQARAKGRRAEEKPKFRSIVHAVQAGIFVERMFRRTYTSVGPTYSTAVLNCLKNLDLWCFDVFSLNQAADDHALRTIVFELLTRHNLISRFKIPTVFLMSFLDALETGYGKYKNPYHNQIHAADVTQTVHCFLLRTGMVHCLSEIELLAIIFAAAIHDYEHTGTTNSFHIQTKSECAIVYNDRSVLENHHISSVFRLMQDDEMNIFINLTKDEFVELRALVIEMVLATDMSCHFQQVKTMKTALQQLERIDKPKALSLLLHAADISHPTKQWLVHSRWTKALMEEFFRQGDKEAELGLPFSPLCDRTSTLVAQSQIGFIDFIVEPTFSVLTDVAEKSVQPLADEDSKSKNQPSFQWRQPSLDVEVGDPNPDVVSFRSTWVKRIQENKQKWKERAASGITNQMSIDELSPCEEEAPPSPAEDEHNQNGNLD
Procedure: as §1

PDE1A = PDE1A (Homo sapiens, UniProt P54750); experiment: PDE1 inhibition assay (PDE1A)
PDE1A, sequence (P54750 whole entry): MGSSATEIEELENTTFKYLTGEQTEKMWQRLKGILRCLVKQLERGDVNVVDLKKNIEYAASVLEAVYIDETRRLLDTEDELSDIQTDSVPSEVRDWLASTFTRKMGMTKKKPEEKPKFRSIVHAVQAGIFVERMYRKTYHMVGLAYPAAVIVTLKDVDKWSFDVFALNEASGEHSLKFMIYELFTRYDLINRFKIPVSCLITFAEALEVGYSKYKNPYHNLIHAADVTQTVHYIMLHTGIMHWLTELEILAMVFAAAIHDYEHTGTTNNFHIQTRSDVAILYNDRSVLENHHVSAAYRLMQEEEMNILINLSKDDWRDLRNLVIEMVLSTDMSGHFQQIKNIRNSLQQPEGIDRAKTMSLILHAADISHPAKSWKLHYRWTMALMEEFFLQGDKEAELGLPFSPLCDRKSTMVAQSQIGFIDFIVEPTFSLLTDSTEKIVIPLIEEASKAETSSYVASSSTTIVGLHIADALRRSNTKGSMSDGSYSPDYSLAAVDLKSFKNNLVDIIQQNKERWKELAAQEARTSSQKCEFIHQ
Procedure: as §1

PDE1C, sequence (Q14123 whole entry): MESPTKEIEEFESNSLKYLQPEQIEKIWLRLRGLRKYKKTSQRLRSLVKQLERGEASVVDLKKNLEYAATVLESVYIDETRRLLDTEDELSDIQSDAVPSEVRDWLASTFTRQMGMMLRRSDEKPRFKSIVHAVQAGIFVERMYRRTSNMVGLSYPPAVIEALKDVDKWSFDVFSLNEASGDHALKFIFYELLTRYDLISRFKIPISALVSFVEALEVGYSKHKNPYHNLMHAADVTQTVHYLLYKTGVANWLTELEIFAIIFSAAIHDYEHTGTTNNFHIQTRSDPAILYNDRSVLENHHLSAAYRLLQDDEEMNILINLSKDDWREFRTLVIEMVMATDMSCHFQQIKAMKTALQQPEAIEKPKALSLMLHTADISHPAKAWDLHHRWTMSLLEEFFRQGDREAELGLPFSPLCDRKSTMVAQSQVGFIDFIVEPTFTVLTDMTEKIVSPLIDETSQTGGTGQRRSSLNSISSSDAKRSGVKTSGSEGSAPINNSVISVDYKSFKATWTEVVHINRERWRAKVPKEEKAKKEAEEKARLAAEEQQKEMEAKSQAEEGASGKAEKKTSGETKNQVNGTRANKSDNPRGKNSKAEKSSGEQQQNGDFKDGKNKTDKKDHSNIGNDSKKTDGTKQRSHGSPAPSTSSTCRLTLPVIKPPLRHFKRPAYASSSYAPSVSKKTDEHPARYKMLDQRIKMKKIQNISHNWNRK

Compound	IC50 (PDE1C) [nM]	IC50 (PDE1B) [nM]	IC50 (PDE1A) [nM]
COc1ccc2c(N3CC[C@H]4OCC[C@H]43)ncnc2c1OC (single isomer, unassigned) [Compound 2]	2800	3700	3200
COc1ccc2c(N3CC[C@@H]4OCC[C@@H]43)ncnc2c1OC (single isomer, unassigned) [Compound 1]	120	120	160
